From patent US12377095B2, “Use of ligustrazine nitrone derivatives in treatment and prevention of diabetic complication diseases” (QINGDAO HAILAN PHARMACEUTICALS CO., LTD., priority 2019, dated 2025) come the findings set out here.

For one experiment, the system named is STZ-induced DKD rats. Description: Serum erythropoietin (ELISA) in STZ-induced DKD rats. Type of experiment: in vivo, rat. As for the experimental part:
Before the injection, the rats were fasted for 12 hours without water. After weighing, the rats were injected with 55 mg/kg STZ intraperitoneally (STZ needs to be injected quickly, and the injection was completed within 10 minutes), and then returned to the cage to ensure that the rats had sufficient drinking water for 24 hours. Rats were injected with an equal volume of citrate buffer (pH 4.5). After STZ injection for 3 weeks, blood was collected from the tail vein, and blood glucose ≥16.7 mmol/L was used as the criteria for the standard of the rats.
The route of administration is intragastric administration. TBN was administered twice a day (fixed at 9:00-10:00 am and 3:00-4:00 pm), and Losartan was administered once a day (fixed at 9:00-10:00 am) continuously for 6 weeks.
At the end of the experiment, after rats were anesthetized, blood was taken from the abdominal aorta, allowed to stand for 1 hour, the supernatant was collected by centrifugation at 3000 rmp for 10 min. The serum erythropoietin level was measured according to the kit operating instructions. […] In the measurement, the blank hole was adjusted to zero, and the absorbance (OD value) of each hole was measured in sequence with a wavelength of 450 nm. […]

The test system of experiment [1] is db/db mice. The experiment is described as follows: HE histopathology of kidney tissue in db/db mice. The class given is in vivo, mouse. The text has this: (§1) db/db mice are congenital obese type 2 DKD mice with spontaneous mutations in the leptin receptor (Leptin receptor, Lepr) due to a point mutation in the leptin receptor gene GT located on chromosome 4. The course of polyphagia, polyuria, diabetes and hyperglycemia is similar to that of humans, and it is currently the most widely used type 2 spontaneous animal model of DKD. The db/db mice have a series of complications with the aggravation of diabetes. The main pathological changes of renal tissue are the expansion of the glomerular mesangial interstitium, the thickening of the glomerular basement membrane, and the excessive accumulation of extracellular matrix. However, the glomerular mesangium of db/db mice changes relatively slowly, and the glomerular mesangium will not be dissolved or nodular glomerulosclerosis, and there is no progressive renal insufficiency.
(§2) Six-week-old db/db mice were purchased, and start the administration after adaptive feeding for 1 week (i.e., 7-week-old). TBN is administered twice a day (fixed by starting from 9:00-10:00 am and 3:00-4:00 pm, with an interval of 6 hours), and the positive control drug Losartan was administered once a day (fixed at 9:00-10:00 am) for 6 weeks.
The HE dyeing process is as shown in Example 9.

Experiment [2] relates to db/db mice. Description: Electron microscopy of kidney tissue in db/db mice. The class given is in vivo, mouse.
From the text: as §1, §2
After the mice were executed, the renal cortex was quickly taken with sharp blade (performed on ice); fixed with 2.5% glutaraldehyde (pH 7.4) at 4° C. for 6 h; then fixed for 2 h in a stationary liquid having 1:1 of 0.2 mmol/L PBS and 2% osmic acid, and dehydrated with gradient acetone at 4° C., 10 min for each of 50%, 70%, 90% acetone, then dehydrated with 100% acetone at room temperature twice, each time 15 min; in 1:1 acetone and Epon812 epoxy resin embedded mixed liquid, soaked at room temperature for 30 min; then dipped through the pure furnishings overnight, the embedding agent was made enveloping into tissue blocks completely to replace the dehydrating agent; the samples were embedded in the embedder for ultra-thin slicing, placed at 35° C. for 12 h; placed at 45° C. for 12 h; placed at 60° C. for 48 h; placed in a 37° C. oven for 36 h, in a 60° C. oven for 36 h; 1.5 μm semi-slice was prepared with an ultra-thin slicer; positioning under optical microscope, a trapeter having a top area of about 1 mm^2 was shaped to prepare 60-70 nm thick ultra-thin slices; dyed in dark with acetate hydroxide liquid for 10 min, and dyed in lead-stained citrate for 10 min.

Experiment [3] deals with cisplatin-induced C57BL/6J mice. Description: Hepcidin level in cisplatin-induced renal anemia C57BL/6J mice. The class given is in vivo, mouse. To be noted: 60 mg/kg twice/day, 4 weeks, P<0.05. As for the experimental part:
Modeling method: the animals were randomly divided into 5 groups, i.e., normal control group, model group, three treatment groups, wherein the normal control group was injected with equal volume of normal saline, the model group and three treatment groups were intraperitoneally injected with cisplatin (CDDP) 5 mg/kg once a week, for 4 weeks.
The route of administration is intragastrical. TBN is administered twice a day (fixed at 9:00-10:00 am and 3:00-4:00 pm), and Roxadustat is administered once every two days (fixed at 9:00-10:00 am), for 4 weeks.
Hepcidin is a cysteine-rich antibacterial polypeptide synthesized and secreted by the liver. It plays a negative regulatory role in the regulation of iron balance in the body and can be used to indirectly evaluate the symptoms of anemia in mice. […] Cisplatin and other chemotherapeutic drugs can cause iron regulation imbalance in mice, and TBN administration can reduce the expression level of iron regulation in the body, and thus can be used to treat cancer complicated renal anemia.

Regarding `Cc1nc(C)c(/C=[N+](\[O-])C(C)(C)C)nc1C` [TBN], the “serum EPO content” value in the experiment with STZ-induced DKD rats (30 mg/kg and 60 mg/kg, P<0.05) is “increased EPO content with significant statistical difference”; with STZ-induced DKD rats (TBN dose groups (10, 30, 60 mg/kg) vs vehicle, to varying degrees) it was “increased”. In addition, the “degree of infiltration of kidney inflammatory cells vs db/db group” value with db/db mice [1] (30 mg/kg and 60 mg/kg dose groups) was “obviously improved”. The “pathological structure of kidney injury (H&E)” value in the experiment with db/db mice [1] (TBN dose groups (10, 30, 60 mg/kg), in various degrees) is given as “improvement”. For the same compound, in the experiment on db/db mice [1] (TBN treatment groups, dose-dependent, more significantly for 30 mg/kg and 60 mg/kg), the “glomerular area (glomerular surface)” value is on record as “reduced”. For the same compound, the podocyte fusion result in the experiment on db/db mice [2] (10 mg/kg) is given as “slight podocyte fusion”; in the experiment with db/db mice [2] (30 mg/kg), “podocyte fusion in small area”; in the experiment with db/db mice [2] (60 mg/kg), “no obvious segmental fusion”. For the same compound, the “proliferation of the glomerular membrane” value with db/db mice [2] (10 mg/kg) is listed as “no significant proliferation”. In addition, the “thickness of the glomerular base film” value is “decrease” in the experiment with db/db mice [2] (10 mg/kg, 6 weeks (TBN P<0.05; Losartan P<0.01)); “significantly reduced” in the experiment with db/db mice [2] (30 mg/kg, P<0.01 vs db/db); “significantly reduced” with db/db mice [2] (60 mg/kg, P<0.01 vs db/db). The “proliferation of the glomerular measuring membrane” value in the experiment on db/db mice [2] (30 mg/kg) is “no significant proliferation”. The “proliferation of glomerular membranes” value in the experiment with db/db mice [2] (60 mg/kg) is “no significant proliferation”. Moreover, the “level of iron regulation (hepcidin) vs model group” value in experiment [3] is on record as “significantly reduced”.
